According to paper PMC6816013 (Journal of Medicinal Chemistry, 2019):
“Also recorded” adds a separate entry of the source. Structures can show the parent of a compound that is named as a salt. Where two headings read alike, the source gives them in different places.

Assays:
[1] = Intrinsic clearance in rat liver microsomes; format: in vitro ADME; settings: 0.5 µM
[2] = system: P. falciparum strain 3D7A; format: cell-based, Plasmodium falciparum
HSA = HSA (Homo sapiens, UniProt P02768); assay: HSA binding (plasma protein binding); format: in vitro ADME
Sequence of HSA (P02768 25-609): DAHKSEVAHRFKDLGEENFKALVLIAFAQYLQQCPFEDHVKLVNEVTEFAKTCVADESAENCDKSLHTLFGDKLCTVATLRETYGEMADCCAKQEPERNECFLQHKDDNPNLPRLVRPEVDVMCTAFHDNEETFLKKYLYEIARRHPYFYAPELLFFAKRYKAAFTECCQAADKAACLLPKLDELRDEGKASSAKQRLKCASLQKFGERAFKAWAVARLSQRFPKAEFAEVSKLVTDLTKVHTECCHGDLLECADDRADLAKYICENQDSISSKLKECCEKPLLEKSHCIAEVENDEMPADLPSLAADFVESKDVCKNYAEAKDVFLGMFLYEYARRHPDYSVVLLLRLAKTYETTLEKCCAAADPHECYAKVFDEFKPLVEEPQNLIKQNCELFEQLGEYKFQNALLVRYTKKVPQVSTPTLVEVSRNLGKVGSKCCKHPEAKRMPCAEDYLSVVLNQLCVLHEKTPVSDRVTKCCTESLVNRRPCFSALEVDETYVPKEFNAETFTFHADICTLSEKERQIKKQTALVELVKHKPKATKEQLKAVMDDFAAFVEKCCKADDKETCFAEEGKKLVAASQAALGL

[3] = system: Plasmodium falciparum 3D7A; assay: microbe, parasite or virus in culture; settings: read-out: Pf EC50
Cell cytotoxicity assay = format: cell-based; settings: for cytotoxicity/cell activity safety window: cytotoxicity EC50 / Pf EC50
[4] = system: Plasmodium falciparum WT cell line; assay: Growth inhibition of P. falciparum WT cell line at 48 and 72 h; format: cell-based; settings: read-out: Pf WT cell line EC50 72h
[5] = target: T1, serine/arginine protein kinase 2 (SRPK2 or CLK2) (Plasmodium falciparum, UniProt Q8IL41); assay: Kinobeads competition binding in P. falciparum extract; settings: Figure 4a, read-out: Kd^app SRPK2
T1 sequence (Q8IL41 1-1268): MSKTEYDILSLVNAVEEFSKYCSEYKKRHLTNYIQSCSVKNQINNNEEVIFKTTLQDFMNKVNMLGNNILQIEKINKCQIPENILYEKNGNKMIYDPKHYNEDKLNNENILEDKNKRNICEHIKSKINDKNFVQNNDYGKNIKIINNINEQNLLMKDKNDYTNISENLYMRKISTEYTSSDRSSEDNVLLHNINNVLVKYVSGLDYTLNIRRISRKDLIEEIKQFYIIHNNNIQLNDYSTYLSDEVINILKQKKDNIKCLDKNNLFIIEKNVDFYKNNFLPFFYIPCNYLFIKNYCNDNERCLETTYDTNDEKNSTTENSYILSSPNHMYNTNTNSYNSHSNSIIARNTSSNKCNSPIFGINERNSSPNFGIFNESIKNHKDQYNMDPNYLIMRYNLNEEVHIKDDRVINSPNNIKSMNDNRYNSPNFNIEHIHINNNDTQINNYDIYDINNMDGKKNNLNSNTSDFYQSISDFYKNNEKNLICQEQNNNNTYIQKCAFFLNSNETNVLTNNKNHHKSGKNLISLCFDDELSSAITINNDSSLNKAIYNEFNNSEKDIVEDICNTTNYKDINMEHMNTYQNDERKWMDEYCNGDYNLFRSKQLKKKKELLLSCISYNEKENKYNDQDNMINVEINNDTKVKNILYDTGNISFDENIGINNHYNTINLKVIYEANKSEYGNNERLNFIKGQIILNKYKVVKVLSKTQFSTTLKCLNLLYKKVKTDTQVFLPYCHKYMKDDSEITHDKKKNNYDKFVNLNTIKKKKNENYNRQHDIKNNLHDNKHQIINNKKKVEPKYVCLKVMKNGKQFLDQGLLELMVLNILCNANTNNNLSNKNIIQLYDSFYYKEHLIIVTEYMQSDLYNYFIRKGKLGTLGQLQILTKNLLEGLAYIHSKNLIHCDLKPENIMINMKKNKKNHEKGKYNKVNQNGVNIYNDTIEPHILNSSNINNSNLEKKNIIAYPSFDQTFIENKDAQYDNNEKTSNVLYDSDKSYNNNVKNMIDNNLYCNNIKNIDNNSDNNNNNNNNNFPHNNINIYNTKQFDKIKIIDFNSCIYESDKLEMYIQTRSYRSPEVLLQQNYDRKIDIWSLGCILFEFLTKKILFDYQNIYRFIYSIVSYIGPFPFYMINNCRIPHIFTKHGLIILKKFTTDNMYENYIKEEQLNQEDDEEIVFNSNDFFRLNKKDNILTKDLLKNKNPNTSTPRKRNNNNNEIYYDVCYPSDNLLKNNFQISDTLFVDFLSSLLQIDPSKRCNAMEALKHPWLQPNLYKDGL

SRPK2 = target: T2, SRPK2 (Plasmodium falciparum, UniProt Q8IL41); assay: Pull down with compound 31 or 50 attached to beads, competition with free compound; format: binding; settings: competed with free analogue, Figure 4b
T2 sequence (Q8IL41 1-1268): T1 sequence (Q8IL41 1-1268)

[6] = system: Plasmodium falciparum 3D7A; settings: read-out: Pf EC50; 3D7A asexual blood stage, 48 h [3H]-hypoxanthine assay, maximal concentration 5 μM
[7] = ChromlogD
[8] = aqueous solubility
[9] = PRR, 10 × EC50, result in words

Molecule	HSA binding (HSA)	AMP (Tables 2 and 5)	rate of killing in PRR study [2, 9]	further results
Cc1cc(Nc2nccc(-c3sc(C4CCNCC4)nc3C3CC3)n2)ccn1 [Compound 59, 4-(4-Cyclopropyl-2-(piperidin-4-yl)thiazol-5-yl)-N-(2-methylpyridin-4-yl)pyrimidin-2-amine Dihydrochloride]				Cl rat [1]: 1.8 mL/min/g; rate of killing in PRR study [2]: potent fast-killing properties; AMP (PAMPA): 1.8
OC(CNc1nccc(-c2sc(C3CCNCC3)nc2-c2ccc(F)cc2)n1)c1ccncc1 (stereo not drawn) [Compound 40, 2-({4-[4-(4-Fluorophenyl)-2-(piperidin-4-yl)-1,3-thiazol-5-yl]pyrimidin-2-yl}amino)-1-(pyridin-4-yl)ethanol]	85%	1e-07 cm/s		EC50 [3]: 1050 nM
C[C@H]1[C@H](OC(=O)CCC(=O)O)O[C@@H]2O[C@@]3(C)CC[C@H]4[C@H](C)CC[C@@H]1[C@@]24OO3 [artesunate]			fast rate of killing	
CN1CCN(c2ccc(Nc3nccc(-c4sc(C5CCNCC5)nc4-c4ccc(F)cc4)n3)cc2)CC1 [Compound 7, reference compound]	97%			cytotoxicity/cell activity safety window (Cell cytotoxicity assay): 5.4
Cc1csc(Nc2nccc(-c3sc(C4CCNCC4)nc3-c3ccc(F)cc3)n2)n1 [Compound 21, N-(4-(4-(4-Fluorophenyl)-2-(piperidin-4-yl)thiazol-5-yl)pyrimidin-2-yl)-4-methylthiazol-2-amine]	96%	1.5e-06 cm/s		
CN1CCC(c2nc(-c3ccc(F)c(NS(C)(=O)=O)c3)c(-c3ccnc(NCC4CC4)n3)s2)CC1 [Compound 5, reference compound]	91%	3.4e-06 cm/s	slow-acting compound; also recorded: slow parasite killing kinetics	EC50 [4]: 110 nM; AMP (Tables 1 and 4): 3.4e-05 cm/s
Cc1nnc(Nc2nccc(-c3sc(C4CCNCC4)nc3-c3ccc(F)cc3)n2)s1 [Compound 20, N-(4-(4-(4-Fluorophenyl)-2-(piperidin-4-yl)thiazol-5-yl)pyrimidin-2-yl)-5-methyl-1,3,4-thiadiazol-2-amine]	92%	8e-07 cm/s		
Fc1ccc(-c2nc(C3CCNCC3)sc2-c2ccnc(NCCN3CCSCC3)n2)cc1 [Compound 50, 4-(4-(4-Fluorophenyl)-2-(piperidin-4-yl)thiazol-5-yl)-N-(2-thiomorpholinoethyl)pyrimidin-2-amine]	90%			Kd [5]: > 20 µM; apparent Kd SRPK2 on immobilized compounds (SRPK2): not bind to 50 attached to beads
Cc1cc(Nc2nccc(-c3sc(C4CCNCC4)nc3CN3CCCCC3)n2)ccn1 [Compound 60, N-(2-Methylpyridin-4-yl)-4-(4-(piperidin-1-ylmethyl)-2-(piperidin-4-yl)thiazol-5-yl)pyrimidin-2-amine Trihydrochloride]			potent fast-killing properties	cytotoxicity/cell activity safety window (Cell cytotoxicity assay): 105
Cc1nc(Nc2nccc(-c3sc(C4CCNCC4)nc3-c3ccc(F)cc3)n2)ccc1F [Compound 35, N-(5-Fluoro-6-methylpyridin-2-yl)-4-(4-(4-fluorophenyl)-2-(piperidin-4-yl)thiazol-5-yl)pyrimidin-2-amine]	96%	3e-06 cm/s		
4-(4-(4-Fluorophenyl)-2-(piperidin-4-yl)thiazol-5-yl)-N-(1-(piperidin-4-yl)-1H-pyrazol-3-yl)pyrimidin-2-amine [Compound 24]	93%	3e-07 cm/s		EC50 (Cell cytotoxicity assay): 100 µM; EC50 [6]: 3.31 µM; logD [7]: 1.29; Solubility [8]: 131 µM
Cc1cc(Nc2nccc(-c3sc(C4CCNCC4)nc3-c3ccc(F)cc3)n2)nn1C [Compound 23, N-(1,5-Dimethyl-1H-pyrazol-3-yl)-4-(4-(4-fluorophenyl)-2-(piperidin-4-yl)thiazol-5-yl)pyrimidin-2-amine]	93%	2e-06 cm/s		
Nc1nccc(-c2sc(C3CCNCC3)nc2-c2ccc(F)cc2)n1 [Compound 41, 4-[4-(4-Fluorophenyl)-2-(piperidin-4-yl)-1,3-thiazol-5-yl]pyrimidin-2-amine]	75%			AMP (Tables 1 and 4): 1.3e-05 cm/s
Fc1ccc(-c2nc(C3CCNCC3)sc2-c2ccnc(Nc3ccccn3)n2)cc1 [Compound 25, 4-(4-(4-Fluorophenyl)-2-(piperidin-4-yl)thiazol-5-yl)-N-(pyridin-2-yl)pyrimidin-2-amine]	94%	3.3e-06 cm/s		
Nc1nc(-c2ccc(F)cc2)c(-c2ccnc(Nc3ccc(N4CCOCC4)cc3)n2)s1 [Compound 13, 4-[2-Amino-4-(4-fluorophenyl)-1,3-thiazol-5-yl]-N-[4-(morpholin-4-yl)phenyl]pyrimidin-2-amine]				EC50 [3]: > 5000 nM
O=C1C(O)=C([C@H]2CC[C@H](c3ccc(Cl)cc3)CC2)C(=O)c2ccccc21 [atovaquone]			slow rate of killing	
CCc1nc(N)nc(N)c1-c1ccc(Cl)cc1 [pyrimethamine]			moderate rate of killing	
Cc1cc(Nc2nccc(-c3sc(C4CCNCC4)nc3-c3ccc(F)cc3)n2)ccn1 [Compound 31, 4-(4-(4-Fluorophenyl)-2-(piperidin-4-yl)thiazol-5-yl)-N-(2-methylpyridin-4-yl)pyrimidin-2-amine]	97.8%	2.1e-06 cm/s	extremely fast-killing effect	cytotoxicity/cell activity safety window (Cell cytotoxicity assay): 25
Fc1ccc(-c2nc(C3CCNCC3)oc2-c2ccnc(Nc3ccncn3)n2)cc1 [Compound 28B]	89%	1.9e-06 cm/s		
Cc1cc(Nc2nccc(-c3sc(C4CCNCC4)nc3-c3ccc(F)cc3)n2)on1 [Compound 22, N-(4-(4-(4-Fluorophenyl)-2-(piperidin-4-yl)thiazol-5-yl)pyrimidin-2-yl)-3-methylisoxazol-5-amine]	94%	1.2e-06 cm/s		
